Experimental data published in patent US5780505A, “Substituted N-arylmethylamino derivatives of cyclobutene-3, 4-diones” (American Home Products Corporation, priority 1997, dated 1998).

Test system: Isolated Rat Bladder Strips
Test: Inhibition of contractions in isolated rat bladder strips (KCl-enhanced contractile activity; smooth muscle relaxation)
Format: cell-based, Sprague-Dawley rats
Details: for IC50 / percent contraction at 30 µM: 0.5 h; for IC50: isolated rat bladder strips, 15 mM additional KCl, 30 minute challenge, read-out: IC50 (50% inhibition of pre-drug contractile activity); for percent contraction at 30 µM / inhibition at 30 µM: Rattus norvegicus; for percent contraction at 30 µM: read-out: Percent contraction at 30 μM (C); for inhibition at 30 µM: read-out: Percent inhibition at 30 μM (I)
Excerpt: The smooth muscle relaxing activity of the compounds of this invention was established in accordance with standard pharmaceutically accepted test procedures with representative compounds as follows:
Sprague-Dawley rats (150-200 g) are rendered unconscious by CO2 asphyxiation and then euthanized by cervical dislocation. The bladder is removed into warm (37 deg.C) physiological salt solution (PSS) of the following composition (mM): NaCl, 118.4; KCl, 4.7; CaCl2, 2.5; MgSO4, 4.7; H2 O, 1,2; NaHCO3, 24.9; KH2 PO4, 1,2; glucose, 11.1; EDTA, 0.023; gassed with […]; pH 7.4. The bladder is opened and then dut into strips 1-2 mm in width and 7-10 mm in length. The strips are subsequently suspended in a 10 mL tissue bath under an initial resting tension of 1.5 g. The strips are held in place by two surgical clips one of which is attached to a fixed hook while the other is attached to an isometric force transducer. […] The carbachol is then washed out and the tissue allowed to relax to its resting level of activity. Following a further 30 min period of recovery an additional 15 mM KCl are introduced into the tissue bath. This increase in KCl concentration results in a large increase in the amplitude of spontaneous contractions (and initiation of contractions in previously quiescent strips) superimposed upon a small increase in basal tone. Following stabilization of this enhanced level of contractile activity, incremental increases in the concentration of test compound or vehicle are introduced into the tissue bath. Contractile activity is measured for each compound or vehicle concentration during the last minute of a 30 minute challenge.
The isometric force developed by the bladder strips is measured using a […] to elicit 50% inhibition of pre-drug contractile activity (IC50 concentration) and is calculated from this concentration-response curve.

| SMILES | IC50 [nM] | percent contraction at 30 µM [%] | inhibition at 30 µM [%] |
| --- | --- | --- | --- |
| CCc1cc(C#N)ccc1CNc1c(NC(C)(C)CC)c(=O)c1=O [Example 50, 4-[(1,1-Dimethyl-propylamino-3,4-dioxo-cyclobut-1-enylamino)-methyl]-3-ethyl-benzonitrile] | 105 ± 5 | – | – |
| Cc1cccc(C)c1CNc1c(N[C@H](C)C(C)(C)C)c(=O)c1=O [Example 51, 3-(2,6-Dimethyl-benzylamino)-4-(1,2,2-trimethyl-propylamino)-cyclobut-3-ene-1,2-dione] | 5600 | 22 ± 3.2 | 44 |
| Cc1cccc(C)c1CNc1c(NC(C)(C)C)c(=O)c1=O [Example 52, 3-tert-Butylamino-4-(2,6-dimethyl-benzylamino)-cyclobut-3-ene-1,2-dione] | 5900 ± 1800 | – | – |
| CCC(C)(C)Nc1c(NCc2c(C)cccc2C)c(=O)c1=O [Example 53, 3-(2,6-Dimethyl-benzylamino)-4-(1,1-dimethyl-propylamino)-cyclobut-3-ene-1,2-dione] | 830 ± 660 | – | – |
| Cc1cccc(C)c1CNc1c(NCC(F)(F)C(F)(F)F)c(=O)c1=O [Example 54, 3-(2,6-Dimethyl-benzylamino)-4-(2,2,3,3,3-pentafluoro-propylamino)-cyclobut-3-ene-1,2-dione] | 17800 | – | 46 |
| Cc1cc(C#N)ccc1CNc1c(N[C@H](C)C(C)(C)C)c(=O)c1=O [Example 55, 4-{[3,4-Dioxo-2-(1,2,2-trimethyl-propylamino)-cyclobut-1-enylamino]-methyl}-3-methyl-benzonitrile] | 1500 ± 400 | – | – |
| COc1cc(C#N)ccc1CNc1c(N[C@H](C)C(C)(C)C)c(=O)c1=O [Example 56, 4-{[3,4-Dioxo-2-(1,2,2-trimethyl-propylamino)-cyclobut-1-enylamino]-methyl}-3-methoxy-benzonitrile] | 950 ± 750 | – | – |
| COc1cccc(C)c1CNc1c(N[C@H](C)C(C)(C)C)c(=O)c1=O [Example 57, 3-(2-Methoxy-6-methyl-benzylamino)-4-(1,2,2-trimethyl-propylamino)-cyclobut-3-ene-1,2-dione] | – | 160 | 29.3 ± 2.3 |
| CCc1cccc(C)c1CNc1c(NC(C)(C)C)c(=O)c1=O [Example 58, 3-tert-Butylamino-4-(2-ethyl-6-methyl-benzylamino)-cyclobut-3-ene-1,2-dione] | 2300 ± 240 | – | 25 |
| CC(C)(C)Nc1c(NCc2ccc(F)cc2C(F)(F)F)c(=O)c1=O [Example 59, 3-tert-Butylamino-4-(4-fluoro-2-trifluoromethyl-benzylamino)-cyclobut-3-ene-1,2-dione] | 1800 ± 600 | – | – |
| CC(C)(C)Nc1c(NCc2ccc(F)cc2Cl)c(=O)c1=O [Example 60, 3-tert-Butylamino-4-(2-chloro-4-fluoro-benzylamino)-cyclobut-3-ene-1,2-dione] | 1400 ± 400 | – | – |
| C[C@@H](Nc1c(NCc2ccc(F)cc2C(F)(F)F)c(=O)c1=O)C(C)(C)C [Example 61, 3-(4-Fluoro-2-trifluoromethyl-benzylamino)-4-(1,2,2-trimethyl-propylamino)-cyclobut-3-ene-1,2-dione] | 1700 ± 1000 | – | – |
| CCC(C)(C)Nc1c(NCc2ccc(F)cc2F)c(=O)c1=O [Example 62, 3-(2,4-Difluoro-benzylamino)-4-(1,1-dimethyl-propylamino)-cyclobut-3-ene-1,2-dione] | 220 ± 40 | – | – |
| CCC(C)(C)Nc1c(NCc2ccc(F)cc2Cl)c(=O)c1=O [Example 63, 3-(2-Chloro-4-fluoro-benzylamino)-4-(1,1-dimethyl-propylamino)-cyclobut-3-ene-1,2-dione] | 1500 ± 1000 | – | – |
| CC(C)(C)Nc1c(NCc2cc(C(F)(F)F)ccc2F)c(=O)c1=O [Example 64, 3-tert-Butylamino-4-(2-fluoro-5-trifluoromethyl-benzylamino)-cyclobut-3-ene-1,2-dione] | 4900 ± 2700 | – | – |
| C[C@@H](Nc1c(NCc2cc(F)ccc2Cl)c(=O)c1=O)C(C)(C)C [Example 65, 3-(2-Chloro-5-fluoro-benzylamino)-4-(1,2,2-trimethyl-propylamino)-cyclobut-3-ene-1,2-dione] | 850 ± 410 | – | – |
| C[C@@H](Nc1c(NCc2cc(F)ccc2F)c(=O)c1=O)C(C)(C)C [Example 66, 3-(2.5-Difluoro-benzylamino)-4-(1,2,2-trimethyl-propylamino)-cyclobut-3-ene-1,2-dione] | 980 ± 400 | – | – |
| CC(C)(C)Nc1c(NCc2ccc(F)c(Cl)c2)c(=O)c1=O [Example 67, 3-tert-Butylamino-4-(3-chloro-4-fluoro-benzylamino)-cyclobut-3-ene-1,2-dione] | 5300 ± 1200 | – | 47.7 |
| CC(C)(C)Nc1c(NCc2ccc(F)c(F)c2)c(=O)c1=O [Example 68, 3-tert-Butylamino-4-(3,4-difluoro-benzylamino)-cyclobut-3-ene-1,2-dione] | 2200 ± 800 | – | – |
| C[C@@H](Nc1c(NCc2ccc(F)c(Cl)c2)c(=O)c1=O)C(C)(C)C [Example 69, 3-(3-Chloro-4-fluoro-benzylamino)-4-(1,2,2-trimethyl-propylamino)-cyclobut-3-ene-1,2-dione] | 5400 ± 2100 | – | – |
| CCC(C)(C)Nc1c(NCc2ccc(F)c(F)c2)c(=O)c1=O [Example 70, 3-(3,4-Difluoro-benzylamino)-4-(1,1-dimethyl-propylamino)-cyclobut-3-ene-1,2-dione] | 1600 ± 770 | – | – |
| CC(C)(C)Nc1c(NCc2cc(F)cc(F)c2)c(=O)c1=O [Example 71, 3-tert-Butyl amino-4-(3,5-difluoro-benzylamino)-cyclobut-3-ene-1,2-dione] | 2600 ± 400 | – | – |
| CC(C)(C)Nc1c(NCc2cc(F)cc(C(F)(F)F)c2)c(=O)c1=O [Example 72, 3-tert-Butylamino-4-(3-fluoro-5-trifluoromethyl-benzylamino)-cyclobut-3-ene-1,2-dione] | 6500 ± 3600 | – | – |
| CC(C)(C)Nc1c(NCc2cc(C(F)(F)F)cc(C(F)(F)F)c2)c(=O)c1=O [Example 73, 3-(3.5-Bis-trifluoromethyl-benzylamino)-4-tert-butylamino-cyclobut-3-ene-1,2-dione] | 23500 ± 8100 | – | 35.8 ± 4.9 |
| CCC(C)(C)Nc1c(NCc2cc(F)cc(F)c2)c(=O)c1=O [Example 74, 3-(3,5-Difluoro-benzylamino)-4-(1,1-dimethyl-propylamino)-cyclobut-3-ene-1,2-dione] | 750 ± 450 | – | – |
| CC(Nc1c(NCc2ccc(C#N)cc2Cl)c(=O)c1=O)C(C)(C)F (stereo not shown) [Example 75, 3-Chloro-4-{[2-(2-fluoro-1,2-dimethyl-propylamino)-3,4-dioxo-cyclobut-1-enylamino]-methyl)-benzonitrile] | 1590 ± 270 | – | – |
| CCC(C)(C)Nc1c(N(Cc2ccc(C#N)cc2Cl)C(C)=O)c(=O)c1=O [Example 77, N-(2-Chloro-4-cyano-benzyl)-N-[2-(1,1-dimethyl-propylamino)-3,4-dioxo-cyclobut-1-enyl)-acetamide] | 2200 ± 950 | – | 25 |
| CCCC(=O)N(Cc1ccc(C#N)cc1Cl)c1c(NC(C)(C)CC)c(=O)c1=O [Example 78] | 2800 ± 1300 | 28.5 ± 8.7 | 18 ± 6.5 |
| CCC(C)(C)Nc1c(NCc2ccc(C)cc2C)c(=O)c1=O [Example 79, 3-(2.4-Dimethyl-benzylamino)-4-(1,1-dimethyl-propylamino)-cyclobut-3-ene-1,2-dione] | 530 ± 230 | – | – |
| CCC(C)(C)Nc1c(NCc2cccc(C)c2C)c(=O)c1=O [Example 80, 3-(2,3-Dimethyl-benzylamino)-4-(1,1-dimethyl-propylamino)-cyclobut-3-ene-1,2-dione] | 5000 ± 3500 | – | – |
